Where two headings read alike, the source gives them in different places.
System: adjuvant-induced polyarthritis
Test: adjuvant-induced polyarthritis syndrome in rats (paw volume)
Assay type: in vivo
Details: Rattus norvegicus, 504 h, dose effecting 50 % inhibition of paw volume, oral, day before adjuvant and continued for 21 days, male Charles River-Wistar Lewis rats
Procedure: The (6,11-dihydro-11-oxodibenz[b,e]oxepinyl)pentanols and derivatives thereof of the present invention are useful as antiarthritic agents due to their ability to specifically suppress arthritis-type inflammation in mammals. […] M. Perrone and F. D. Wood, Arthritis and Rheumatism, 2, 440 (1959).
Groups of 10 male Charles River-Wistar Lewis rats weighing 150 to 175 g were individually housed and maintained on a regular rat chow diet. Water was given ad libitum. The adjuvant was prepared by suspending 75 mg of Mycobacterium butyricum (Difeo Laboratories, Detroit, Michigan) in 10 ml of white paraffin oil with continuous stirring for 2 hrs at room temperature prior to administration. Test compounds are prepared by suspending the drug in water, adding one drop of Tween 80 per 10 ml of suspension, and homogenizing. The adjuvant suspension (0.1 ml) was injected into the footpad of the left hind paw of the rat. Test compound suspensions were administered orally (10 ml/kg) the day before adjuvant suspension injection and the administration was continued for 21 days. One group of ten rats was used for the test drug, standard, adjuvant-injected control and non-injected control. Control animals received vehicle (10 ml/kg). Three doses of test drug and one dose of standard preparation were used. Injected and non-injected paw volumes were determined on the day the adjuvant suspension was given, and in subsequent days thereafter (usually days 5, 10, 18 and 21) by the method of C. A. Wilson, et al., Proc. Soc. Exp. Biol. Med., 111 544 (1962).
The percent inhibition of paw volume (injected and non-injected hind paw) was calculated by the following formula: [formula] ED50-values, i.e., the dose at which the drug effects a 50 % inhibition of paw volume, were estimated by the method of J. T. Litchfield and F. Wilcoxon, J. Pharm. Exp. Thes., 96, 99 (1948), and statistically evaluated by means of the sudent "t" test.

[1] = injected hind paw, read-out: ED50 (injected)
[2] = non-injected hind paw, read-out: ED50 (non-injected)

`CCCCC1C(=O)N(c2ccccc2)N(c2ccccc2)C1=O` [phenylbutazone] showed an ED50 [1] of 12 mg/kg and an ED50 [2] of 6.8 mg/kg.
`CC(CCCO)c1ccc2c(c1)C(=O)c1ccccc1CO2` (stereo not shown) [4-(6,11-Dihydro-11-oxodibenz[b,e]oxepin-2-yl)pentanol] was tested, and the ED50 [1] was 5.6 mg/kg and the ED50 [2] was 3.9 mg/kg.

Source: patent EP0160258A2, “(6,11-Dihydro-11-oxodibenz(bm,e)oxepinyl)pentanols, a process and intermediates for their preparation and their use as medicaments” (HOECHST-ROUSSEL PHARMACEUTICALS INCORPORATED, priority 1984, dated 1985)
